The source of these data is ChEMBL document CHEMBL5465560, “Selectivity Literature for EUbOPEN Chemogenomic Library” (2024).

The target of assay [1] is Fibroblast growth factor receptor 3 (Homo sapiens, UniProt P22607). Nature of the assay: Selectivity interaction (ProQinase) EUB0000171b FGFR3. To be noted: at 5 µM.
The subject of assay [2] is Receptor-type tyrosine-protein kinase FLT3 (Homo sapiens), P36888 [UNDEFINED MUTATION]. To be noted: at 10 µM.
The target of assay [3] is Tyrosine-protein kinase Blk (Homo sapiens) (UniProt P51451). The experiment in a line: Selectivity interaction (Ambit KINOMEscan and KiNATiv profiling in Jurkat cells) EUB0000090b BLK. In kind it is cell-based. To be noted: at 1 µM.
Sequence of Tyrosine-protein kinase Blk (Homo sapiens) (P51451 2-505 limits assumed): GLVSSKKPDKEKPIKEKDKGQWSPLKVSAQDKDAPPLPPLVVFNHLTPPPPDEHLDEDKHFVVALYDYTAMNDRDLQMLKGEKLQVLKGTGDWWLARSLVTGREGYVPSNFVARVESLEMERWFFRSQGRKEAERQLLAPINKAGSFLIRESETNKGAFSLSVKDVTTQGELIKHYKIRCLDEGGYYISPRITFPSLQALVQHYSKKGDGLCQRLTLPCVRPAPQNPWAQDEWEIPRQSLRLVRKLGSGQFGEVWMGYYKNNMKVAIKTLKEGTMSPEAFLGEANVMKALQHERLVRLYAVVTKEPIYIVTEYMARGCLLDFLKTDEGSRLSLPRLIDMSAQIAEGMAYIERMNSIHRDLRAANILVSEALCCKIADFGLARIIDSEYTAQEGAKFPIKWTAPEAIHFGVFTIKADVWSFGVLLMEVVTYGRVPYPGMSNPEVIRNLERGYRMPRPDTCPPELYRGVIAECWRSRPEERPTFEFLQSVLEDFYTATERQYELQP
Assay [4] addresses Mitogen-activated protein kinase kinase kinase kinase 5 (Homo sapiens) (UniProt Q9Y4K4). The experiment in a line: Selectivity interaction (KinomeScan (DiscoverX)) EUB0000655a MAP4K5. The note with it: at 10 µM.
For assay [5], the target named is Myosin light chain kinase, smooth muscle (Homo sapiens, UniProt Q15746). The experiment in a line: Selectivity interaction (KinomeScan (DiscoverX)) EUB0000695a MYLK. To be noted: at 100 nM.
Sequence of Myosin light chain kinase, smooth muscle (Q15746 whole entry): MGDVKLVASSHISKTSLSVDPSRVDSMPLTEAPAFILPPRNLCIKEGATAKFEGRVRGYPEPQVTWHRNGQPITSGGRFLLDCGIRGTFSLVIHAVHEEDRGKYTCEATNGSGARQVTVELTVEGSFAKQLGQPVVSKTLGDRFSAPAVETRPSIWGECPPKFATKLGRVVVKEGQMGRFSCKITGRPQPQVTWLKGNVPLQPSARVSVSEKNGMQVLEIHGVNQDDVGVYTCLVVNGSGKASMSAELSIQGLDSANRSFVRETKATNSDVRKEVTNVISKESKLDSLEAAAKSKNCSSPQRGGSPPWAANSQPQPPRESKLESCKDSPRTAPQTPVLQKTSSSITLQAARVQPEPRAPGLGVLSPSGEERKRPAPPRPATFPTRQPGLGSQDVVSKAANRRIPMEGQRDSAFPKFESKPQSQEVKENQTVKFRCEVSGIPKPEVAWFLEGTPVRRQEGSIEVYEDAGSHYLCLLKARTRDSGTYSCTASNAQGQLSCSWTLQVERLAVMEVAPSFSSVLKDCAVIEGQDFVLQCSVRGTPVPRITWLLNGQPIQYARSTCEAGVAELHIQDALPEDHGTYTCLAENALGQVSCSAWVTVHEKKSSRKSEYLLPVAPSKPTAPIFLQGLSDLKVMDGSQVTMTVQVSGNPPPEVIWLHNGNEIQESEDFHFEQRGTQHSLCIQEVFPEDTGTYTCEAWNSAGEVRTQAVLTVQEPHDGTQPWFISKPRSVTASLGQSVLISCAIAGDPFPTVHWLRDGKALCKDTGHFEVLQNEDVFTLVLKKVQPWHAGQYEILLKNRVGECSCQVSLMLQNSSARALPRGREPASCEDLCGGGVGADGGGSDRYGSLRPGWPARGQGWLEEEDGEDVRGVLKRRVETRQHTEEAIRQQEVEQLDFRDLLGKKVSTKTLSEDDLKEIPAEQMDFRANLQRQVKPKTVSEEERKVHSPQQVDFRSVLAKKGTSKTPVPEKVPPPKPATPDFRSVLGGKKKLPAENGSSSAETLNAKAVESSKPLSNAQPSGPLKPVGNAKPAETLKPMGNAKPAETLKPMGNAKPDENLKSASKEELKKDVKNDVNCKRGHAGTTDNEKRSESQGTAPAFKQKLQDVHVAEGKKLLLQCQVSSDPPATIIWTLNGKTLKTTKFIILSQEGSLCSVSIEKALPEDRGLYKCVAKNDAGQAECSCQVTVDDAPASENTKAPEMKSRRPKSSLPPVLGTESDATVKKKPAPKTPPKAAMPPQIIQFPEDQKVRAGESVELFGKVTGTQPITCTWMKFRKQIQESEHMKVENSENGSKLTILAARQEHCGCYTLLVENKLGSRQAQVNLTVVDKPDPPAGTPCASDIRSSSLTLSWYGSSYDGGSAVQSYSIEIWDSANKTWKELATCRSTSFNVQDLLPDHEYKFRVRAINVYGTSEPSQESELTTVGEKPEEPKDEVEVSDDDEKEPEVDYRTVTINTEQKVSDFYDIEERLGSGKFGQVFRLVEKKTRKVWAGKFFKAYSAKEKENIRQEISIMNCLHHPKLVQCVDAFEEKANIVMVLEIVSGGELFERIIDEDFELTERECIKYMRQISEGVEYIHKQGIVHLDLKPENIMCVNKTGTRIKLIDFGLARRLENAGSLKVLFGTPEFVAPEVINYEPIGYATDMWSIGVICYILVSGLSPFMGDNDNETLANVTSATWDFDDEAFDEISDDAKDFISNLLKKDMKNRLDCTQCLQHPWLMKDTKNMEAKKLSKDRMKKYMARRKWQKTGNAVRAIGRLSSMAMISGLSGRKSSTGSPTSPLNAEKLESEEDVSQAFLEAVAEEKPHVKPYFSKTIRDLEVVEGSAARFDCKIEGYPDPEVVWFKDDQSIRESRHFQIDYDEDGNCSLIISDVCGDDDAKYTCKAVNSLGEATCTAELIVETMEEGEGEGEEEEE
The target in assay [6] is 5-hydroxytryptamine receptor 1B (Homo sapiens) (UniProt P28222). The experiment in a line: Selectivity interaction (Panel of non-epigenetic targets (kinases, GPCRs, ion channels, and transporters, Eurofins) ) EUB0000271b HTR1B. To be noted: at 1 µM.
Sequence of 5-hydroxytryptamine receptor 1B (Homo sapiens) (P28222 whole entry, the tested form may be a part): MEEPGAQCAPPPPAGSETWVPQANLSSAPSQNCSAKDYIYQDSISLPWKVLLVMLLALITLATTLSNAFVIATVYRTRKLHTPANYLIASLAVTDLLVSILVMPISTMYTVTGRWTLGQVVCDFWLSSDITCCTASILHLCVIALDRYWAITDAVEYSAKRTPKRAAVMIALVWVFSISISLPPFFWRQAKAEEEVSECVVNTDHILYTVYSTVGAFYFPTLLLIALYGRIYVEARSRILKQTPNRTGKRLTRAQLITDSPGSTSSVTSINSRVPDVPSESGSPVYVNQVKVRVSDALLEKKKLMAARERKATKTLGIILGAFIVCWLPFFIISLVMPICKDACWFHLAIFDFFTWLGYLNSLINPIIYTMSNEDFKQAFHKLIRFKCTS
In assay [7] the target is TP53-binding protein 1 (Homo sapiens) (UniProt Q12888). Nature of the assay: Selectivity interaction (PWWP, WD40, and Tudor domain panel (DSLS measurements, literature)) EUB0000270b TP53BP1.
Assay [8] has as its target T1, Mitogen-activated protein kinase kinase kinase 5 (Homo sapiens) (UniProt Q99683).
T1 sequence (whole entry): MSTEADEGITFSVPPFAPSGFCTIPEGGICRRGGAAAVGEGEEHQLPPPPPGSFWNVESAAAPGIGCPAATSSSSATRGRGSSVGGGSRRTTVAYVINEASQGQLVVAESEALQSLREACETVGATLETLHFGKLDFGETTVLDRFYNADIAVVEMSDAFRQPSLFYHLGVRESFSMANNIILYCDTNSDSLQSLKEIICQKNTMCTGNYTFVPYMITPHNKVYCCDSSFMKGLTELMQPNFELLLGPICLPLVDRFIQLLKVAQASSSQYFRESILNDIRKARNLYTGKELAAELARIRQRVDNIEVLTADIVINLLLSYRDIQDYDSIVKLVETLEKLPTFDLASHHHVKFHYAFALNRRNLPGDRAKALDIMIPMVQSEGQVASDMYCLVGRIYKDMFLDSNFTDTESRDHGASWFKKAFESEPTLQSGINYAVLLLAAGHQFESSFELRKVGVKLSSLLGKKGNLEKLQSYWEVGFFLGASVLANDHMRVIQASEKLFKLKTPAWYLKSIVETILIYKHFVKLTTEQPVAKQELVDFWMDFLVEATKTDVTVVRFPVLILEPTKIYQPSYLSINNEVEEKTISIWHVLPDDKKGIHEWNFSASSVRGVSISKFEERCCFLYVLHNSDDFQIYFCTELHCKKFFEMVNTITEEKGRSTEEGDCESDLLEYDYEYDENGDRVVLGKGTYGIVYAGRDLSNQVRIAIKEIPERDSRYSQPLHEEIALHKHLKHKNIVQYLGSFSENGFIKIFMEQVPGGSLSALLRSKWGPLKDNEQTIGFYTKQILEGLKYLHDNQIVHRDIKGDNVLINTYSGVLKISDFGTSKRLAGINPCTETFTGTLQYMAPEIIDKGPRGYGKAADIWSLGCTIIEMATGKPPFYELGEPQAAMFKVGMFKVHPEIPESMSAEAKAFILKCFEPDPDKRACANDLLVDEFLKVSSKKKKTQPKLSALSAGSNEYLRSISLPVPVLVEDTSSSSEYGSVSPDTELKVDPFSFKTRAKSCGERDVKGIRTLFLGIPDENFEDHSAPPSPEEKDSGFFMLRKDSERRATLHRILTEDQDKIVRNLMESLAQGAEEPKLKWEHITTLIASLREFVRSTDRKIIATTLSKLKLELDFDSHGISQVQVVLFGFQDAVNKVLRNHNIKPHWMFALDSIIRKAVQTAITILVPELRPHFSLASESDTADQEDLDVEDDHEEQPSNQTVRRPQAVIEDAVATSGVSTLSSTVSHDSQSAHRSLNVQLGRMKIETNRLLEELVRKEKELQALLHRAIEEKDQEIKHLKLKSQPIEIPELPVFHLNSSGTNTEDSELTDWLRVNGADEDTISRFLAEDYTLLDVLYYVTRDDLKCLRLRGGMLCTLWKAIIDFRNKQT
The experiment in a line: Selectivity interaction (ActivX KiNativ screen (kinase selectivity in THP-1 cell lysates)) EUB0000639a MAP3K5. In kind it is subcellular. To be noted: lysate, at 0.2 µM.

Assay [9] addresses T2, Serine/threonine-protein kinase NLK (Homo sapiens) (UniProt Q9UBE8).
T2 sequence (whole entry): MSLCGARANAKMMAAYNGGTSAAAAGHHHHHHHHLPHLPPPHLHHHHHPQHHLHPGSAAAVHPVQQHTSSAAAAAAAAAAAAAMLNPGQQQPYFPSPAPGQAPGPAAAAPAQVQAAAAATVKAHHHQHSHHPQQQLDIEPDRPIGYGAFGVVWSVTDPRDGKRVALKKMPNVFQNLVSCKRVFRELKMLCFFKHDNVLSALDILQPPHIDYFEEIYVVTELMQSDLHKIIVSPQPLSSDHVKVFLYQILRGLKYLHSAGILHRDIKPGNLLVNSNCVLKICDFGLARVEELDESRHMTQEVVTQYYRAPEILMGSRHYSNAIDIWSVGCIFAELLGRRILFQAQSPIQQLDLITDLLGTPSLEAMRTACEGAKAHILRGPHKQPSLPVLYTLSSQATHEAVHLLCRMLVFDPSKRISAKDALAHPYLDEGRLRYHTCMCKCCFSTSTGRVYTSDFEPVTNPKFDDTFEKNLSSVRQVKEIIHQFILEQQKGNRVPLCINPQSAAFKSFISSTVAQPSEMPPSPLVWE
Nature of the assay: Selectivity interaction (Kinase panel (Invitrogen)) EUB0000639a NLK. The note with it: at 200 nM.

The target of assay [10] is Serine/threonine-protein kinase 38 (Homo sapiens) (UniProt Q15208). Nature of the assay: Selectivity interaction (KinomeScan (DiscoverX)) EUB0000618a STK38. The note with it: at 10 µM.

Sequence of Mitogen-activated protein kinase kinase kinase kinase 5 (Homo sapiens) (Q9Y4K4 whole entry, looked up): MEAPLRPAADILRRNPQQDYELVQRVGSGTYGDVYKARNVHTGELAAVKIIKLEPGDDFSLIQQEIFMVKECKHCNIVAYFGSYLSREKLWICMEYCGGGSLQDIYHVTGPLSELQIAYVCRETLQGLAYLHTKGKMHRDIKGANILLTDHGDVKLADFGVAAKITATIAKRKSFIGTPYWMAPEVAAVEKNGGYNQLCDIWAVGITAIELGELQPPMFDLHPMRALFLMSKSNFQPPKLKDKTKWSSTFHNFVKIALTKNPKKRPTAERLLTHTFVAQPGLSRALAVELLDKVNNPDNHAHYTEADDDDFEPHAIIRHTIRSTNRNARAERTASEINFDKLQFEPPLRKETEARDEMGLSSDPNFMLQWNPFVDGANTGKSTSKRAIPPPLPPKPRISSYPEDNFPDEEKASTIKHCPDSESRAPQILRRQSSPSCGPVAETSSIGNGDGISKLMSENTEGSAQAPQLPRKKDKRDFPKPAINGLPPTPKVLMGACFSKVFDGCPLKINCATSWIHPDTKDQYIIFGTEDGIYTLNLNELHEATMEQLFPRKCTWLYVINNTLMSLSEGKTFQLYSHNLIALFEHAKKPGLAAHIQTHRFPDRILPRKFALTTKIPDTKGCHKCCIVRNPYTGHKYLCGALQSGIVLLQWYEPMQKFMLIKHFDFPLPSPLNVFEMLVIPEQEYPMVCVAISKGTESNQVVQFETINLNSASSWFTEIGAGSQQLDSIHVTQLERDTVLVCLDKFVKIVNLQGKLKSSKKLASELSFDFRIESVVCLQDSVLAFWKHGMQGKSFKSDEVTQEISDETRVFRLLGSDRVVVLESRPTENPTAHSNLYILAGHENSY
Sequence of Receptor-type tyrosine-protein kinase FLT3 (Homo sapiens), P36888 [UNDEFINED MUTATION] (P36888 whole entry, looked up, change not shown): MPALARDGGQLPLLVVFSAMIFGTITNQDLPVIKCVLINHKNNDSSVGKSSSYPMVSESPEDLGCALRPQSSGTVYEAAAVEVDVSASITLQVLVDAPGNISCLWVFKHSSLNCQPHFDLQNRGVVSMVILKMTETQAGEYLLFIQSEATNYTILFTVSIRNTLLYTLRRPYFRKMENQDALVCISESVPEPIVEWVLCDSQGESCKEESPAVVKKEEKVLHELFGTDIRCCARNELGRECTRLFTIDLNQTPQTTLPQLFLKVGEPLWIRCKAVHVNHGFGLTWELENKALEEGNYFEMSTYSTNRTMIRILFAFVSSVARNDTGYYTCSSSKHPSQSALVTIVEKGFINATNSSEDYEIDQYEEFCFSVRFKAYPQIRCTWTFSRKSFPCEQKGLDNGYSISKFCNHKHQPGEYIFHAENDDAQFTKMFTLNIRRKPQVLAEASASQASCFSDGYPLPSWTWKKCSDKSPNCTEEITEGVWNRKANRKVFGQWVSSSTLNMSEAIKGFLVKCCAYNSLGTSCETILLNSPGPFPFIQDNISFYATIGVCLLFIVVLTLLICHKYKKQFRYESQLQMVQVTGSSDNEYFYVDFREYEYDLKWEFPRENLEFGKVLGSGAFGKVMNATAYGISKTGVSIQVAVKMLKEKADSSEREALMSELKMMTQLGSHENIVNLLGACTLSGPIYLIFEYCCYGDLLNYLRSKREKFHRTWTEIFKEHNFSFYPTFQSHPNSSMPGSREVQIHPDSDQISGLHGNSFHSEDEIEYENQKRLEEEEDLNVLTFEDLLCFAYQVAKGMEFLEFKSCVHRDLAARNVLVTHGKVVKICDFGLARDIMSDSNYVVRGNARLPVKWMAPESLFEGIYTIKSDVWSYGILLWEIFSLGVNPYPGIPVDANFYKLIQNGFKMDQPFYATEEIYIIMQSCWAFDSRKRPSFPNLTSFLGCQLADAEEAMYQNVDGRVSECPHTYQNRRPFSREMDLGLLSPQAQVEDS

For `C=CC(=O)Nc1cccc(C(=O)Nc2ccc(Nc3cc(-c4[nH]c(SC)nc4C)ccn3)cc2)c1`, the % of control in assay [1] worked out at 91%.
On to `Cc1cc([C@@H](C)Nc2ccccc2C(=O)O)c2nc(N3CCOCC3)cc(=O)n2c1` [AZD-6482], for which the % of control in [2] is 53%.
In turn, `CN(C)C/C=C/C(=O)Nc1ccc(C(=O)N2CCCC(Nc3ncc(Cl)c(-c4c[nH]c5ccccc45)n3)C2)cc1` (stereo not given) registered a % of control in assay [3] of 84%.
`CN(C)CCOc1ccc(-c2nc(-c3ccncc3)c(-c3ccc4c(c3)CC/C4=N\O)[nH]2)cc1`: in [4], the % of control is 97%.
`Cc1cc(F)c(C(=O)Nc2cccc(-c3nncn3C(C)C)n2)cc1-n1cnc(C2CC2)c1` had a % of control in [5] of 100%.
On to `Cc1cc(C)cc([C@@H]2c3cc(C)ccc3NC(=O)CN2C(=O)c2ccc(Br)s2)c1`, for which the % of inhibition in assay [6] was found to be 6%.
`Cc1cc(CN)cc(C)c1-c1ncn(C)c1-c1cncn1C` had a dTagg in assay [7] of 0.1 K.
Take `CC[C@@H]1[C@H](F)C(=O)N[C@@H]1COc1nccc2cc(C(N)=O)c(OC)cc12` [ZIMLOVISERTIB]: the % of inhibition in assay [8] was -11.2%; in [9] it was 10.2%.
`O[C@H]1CC[C@H](Nc2ncc3nc(Nc4c(F)cc(F)cc4F)n([C@H]4CCOC4)c3n2)CC1` returned a % of control in assay [10] of 100%.
